From patent US7534788B2, “Benzofuran and benzothiophene-2-carboxylic acid amide derivatives” (Hoffmann-La Roche Inc., priority 2007, dated 2009)

Each compound was assayed against T1, histamine 3 receptor (H3R) (Homo sapiens, UniProt Q9Y5N1) (assay: Binding assay with 3H-(R)α-methylhistamine (competition binding)). Settings: competition with 3H(R)α-methylhistamine (1 nM), membranes of the human HR3-CHO cell line; Ki calculated from IC50 by Cheng-Prusoff.
T1 construct: expressed in transfected cells; host or cells: CHO cells (HR3-CHO)
Experimental: Binding Assay with ^3H—(R)α-methylhistamine
Saturation binding experiments were performed using HR3-CHO membranes prepared as described in Takahashi, K, Tokita, S., Kotani, H. (2003) J. Pharmacol. Exp. Therapeutics 307, 213-218.
An appropriate amount of membrane (60 to 80 μg protein/well) was incubated with increasing concentrations of ^3H(R)α-Methylhistamine di-hydrochloride (0.10 to 10 nM). Non specific binding was determined using a 200 fold excess of cold (R)α-Methylhistamine dihydrobromide (500 nM final concentration). The incubation was carried out at room temperature (in deep-well plates shaking for three hours). The final volume in each well was 250 μl. The incubation was followed by rapid filtration on GF/B filters (pre-soaked with 100 μl of 0.5% PEI in Tris 50 mM shaking at 200 rpm for two hours). The filtration was made using a cell-harvester and the filter plates were then washed five times with ice cold washing buffer containing 0.5 M NaCl. After harvesting, the plates were dried at 55° C. for 60 min, then scintillation fluid (Microscint 40, 40 microl in each well) was added and the amount of radioactivity on the filter was determined in Packard top-counter after shaking the plates for two hours at 200 rpm at room temperature.
Binding Buffer: 50 mM Tris-HCl pH 7.4 and 5 mM MgCl2×6H2O pH 7.4. Washing Buffer: 50 mM Tris-HCl pH 7.4 and 5 mM MgCl2×6H2O and 0.5 M NaCl pH 7.4.
Indirect measurement of affinity of H3R inverse agonists: twelve increasing concentrations (ranging from 10 μM to 0.3 nM) of the selected compounds were always tested in competition binding experiments using membranes of the human HR3-CHO cell line. An appropriate amount of protein, e.g. approximately 500 cpm binding of RAMH at Kd, were incubated for 1 hour at room temperature in 250 μl final volume in 96-well plates in presence of ^3H(R)α-Methylhistamine (1 nM final concentration=Kd). Non-specific binding was determined using a 200 fold excess of cold (R)α-Methylhistamine dihydrobromide.
All compounds were tested at a single concentration in duplicate. […] The concentration at which 50% inhibition of the radioligand ^3H(R)α-methylhistamine is obtained (the IC50) is determined from the linear regression of a plot of the logarithm of the concentration versus percent inhibition measured for the different concentrations. Ki's were calculated from IC50 based on Cheng-Prusoff equation (Cheng, Y, Prusoff, W H (1973) Biochem Pharmacol 22, 3099-3108): Ki=IC50/[1+D/Kd] wherein D is the concentration of the radioligand and Kd is the binding constant for the radioligand binding to the receptor under the conditions used in the competition experiment.

T1 sequence (Q9Y5N1 whole entry): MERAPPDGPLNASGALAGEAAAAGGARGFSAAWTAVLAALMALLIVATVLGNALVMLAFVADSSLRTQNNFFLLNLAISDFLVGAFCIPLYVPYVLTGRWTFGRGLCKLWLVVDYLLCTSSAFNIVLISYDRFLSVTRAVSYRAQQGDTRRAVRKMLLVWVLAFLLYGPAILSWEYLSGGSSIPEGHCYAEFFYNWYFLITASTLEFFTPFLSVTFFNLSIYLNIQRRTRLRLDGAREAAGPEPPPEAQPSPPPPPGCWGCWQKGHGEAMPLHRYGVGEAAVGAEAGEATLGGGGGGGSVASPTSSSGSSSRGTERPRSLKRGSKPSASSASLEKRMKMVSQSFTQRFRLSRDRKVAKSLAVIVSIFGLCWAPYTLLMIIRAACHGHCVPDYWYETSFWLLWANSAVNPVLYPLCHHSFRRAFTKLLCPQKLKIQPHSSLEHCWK

| Ki | Compound |
| --- | --- |
| 1.3 nM | CC(C)N1CCC(Oc2ccc3c(-c4ccccc4)c(C(=O)N4CCC(F)(F)CC4)oc3c2)CC1 [Example 17, (4,4-Difluoro-piperidin-1-yl)-[6-(1-isopropyl-piperidin-4-yloxy)-3-phenyl-benzofuran-2-yl]-methanone] |
| 0.4 nM | COC(=O)N1CCN(C(=O)c2oc3cc(OC4CCN(C(C)C)CC4)ccc3c2-c2ccc(F)cc2)CC1 [Example 45, 4-[3-(4-Fluoro-phenyl)-6-(1-isopropyl-piperidin-4-yloxy)-benzofuran-2-carbonyl]-piperazine-1-carboxylic acid methyl ester] |
| 0.1 nM | O=C(c1oc2cc(OC3CCN(C4CCC4)CC3)ccc2c1-c1ccc(F)cc1)N1CCC(F)(F)CC1 [Example 65, [6-(1-Cyclobutyl-piperidin-4-yloxy)-3-(4-fluoro-phenyl)-benzofuran-2-yl]-(4,4-difluoro-piperidin-1-yl)-methanone] |
| 1.5 nM | CC(C)N1CCC(Oc2cc3cc(C(=O)N4CCS(=O)(=O)CC4)sc3cc2Cl)CC1 [Example 69, [6-Chloro-5-(1-isopropyl-piperidin-4-yloxy)-benzo[b]thiophen-2-yl]-(1,1-dioxo-1λ6thiomorpholin-4-yl)-methanone] |
| 0.8 nM | COC(=O)N1CCN(C(=O)c2oc3cc(OC4CCN(C(C)C)CC4)c(Cl)cc3c2C(C)C)CC1 [Example 72, 4-[5-Chloro-3-isopropyl-6-(1-isopropyl-piperidin-4-yloxy)-benzofuran-2-carbonyl]-piperazine-1-carboxylic acid methyl ester] |
| 0.5 nM | COC(=O)N1CCN(C(=O)c2oc3cc(OC4CCN(C5CCC5)CC4)c(Cl)cc3c2C(C)C)CC1 [Example 76, 4-[5-Chloro-6-(1-cyclobutyl-piperidin-4-yloxy)-3-isopropyl-benzofuran-2-carbonyl]-piperazine-1-carboxylic acid methyl ester] |
| 0.4 nM | CC(C)N1CCC(Oc2cc3oc(C(=O)N4CCS(=O)(=O)CC4)c(-c4ccc(F)cc4)c3cc2Cl)CC1 [Example 82, [5-Chloro-3-(4-fluoro-phenyl)-6-(1-isopropyl-piperidin-4-yloxy)-benzofuran-2-yl]-(1,1-dioxo-1λ6thiomorpholin-4-yl)-methanone] |
| 2.6 nM | Cc1c(C(=O)N2CCC(F)(F)CC2)oc2cc(OC3CCN(C4CCC4)CC3)c(Cl)cc12 [Example 91, [5-Chloro-6-(1-cyclobutyl-piperidin-4-yloxy)-3-methyl-benzofuran-2-yl]-(4,4-difluoro-piperidin-1-yl)-methanone] |
| 2.3 nM | COC(=O)N1CCN(C(=O)c2oc3cc(OC4CCN(C5CCC5)CC4)c(Cl)cc3c2C)CC1 [Example 94, 4-[5-Chloro-6-(1-cyclobutyl-piperidin-4-yloxy)-3-methyl-benzofuran-2-carbonyl]-piperazine-1-carboxylic acid methyl ester] |
